Measurements published in ChEMBL document CHEMBL1221212, “Small-molecule activation of neuronal cell fate” (Nat Chem Biol, 2008).
The source made the active and inactive calls. The rule behind the calls is not given here.

Key:
Assay type in all cases: functional, cell-based
HCN [1] = assay: Induction of rat HCN cell differentiation assessed as induction of neuronal reporter neuroD activity by luciferase reporter gene assay
P19CL6 = assay: Induction of mouse C57BL/6 P19CL6 cell differentiation assessed as induction of neuronal reporter neuroD activity by luciferase reporter gene assay
HCN [2] = assay: Induction of rat HCN cell differentiation assessed as induction of neuronal reporter neuroD activity at 20 uM after 24 hrs by luciferase reporter gene assay

| Compound | Activity (HCN [1]) | Activity (P19CL6) | Activity (HCN [2]) |
| --- | --- | --- | --- |
| O=C(NC1CCCC1)c1cc(-c2ccco2)on1 | Dose-dependent effect | Dose-dependent effect | – |
| O=C(NC1CCCCC1)c1cc(-c2cccs2)on1 | – | – | Active |
| O=C(NC1CCC1)c1cc(-c2cccs2)on1 | – | – | Active |
| CNC(=O)c1cc(-c2cccs2)on1 | – | – | Active |
